The test system of data set [1] is model of chronic depression in mice (repeated forced swim). Conditions: for acute antidepressant (anti-immobility) effect in the RFS: single acute i.p. administration minutes before the swim, low doses, prazosin 0.2 mg/kg present. The source says: We administered the pro-drugs shortly before one or more tests of antidepressant activity including reversal of immobility during tail suspension and forced swimming and attenuation of anhedonia produced by endotoxin administration. […] (Stone et al., Eur. J. Pharmacol. (2001) 420: 97-102) Because dp6FNE like all other antidepressants has an initial anorexic effect and acutely reduces the consumption of sweet solutions, in the test for anhedonia it was necessary to employ a non-nutritive hedonic behavior, FUST (sniffing of estrous female urine). […] (Stone et al., Neuropsychopharmacology (2011) 14: 319-331); Sun et al., J. Neurosci. Methods (2003) 126:35-40; Sun et al., Behavioral Pharmacology (2008) 19: 334-338).
Mice were swum for 15 min/d on 4 d and tested for the response to acute i.p dp6FNE (1 or 3 mg/kg) alone or in combination with 8-OHDPAT (0.05 mg/kg) and corticosterone (3 mg/kg) on the 5th and final swim (15 min after drug administration). […] Comparison groups receiving currently available antidepressants were treated acutely i.p. or chronically (14 d osmotic pumps) with either desmethylimipramine (DMI) (10 mg/kg), fluoxetine (5 mg/kg), escitalopram (5 mg/kg), bupropion (10 mg/kg) or ketamine (10 mg/kg).
Although corticosteroids are well known to produce depression (Gourley et al., Biol Psychiatry (2008) 64: 884-890), this occurs at high doses only. […] Mice were swum for 3 d and given either vehicle (0.8% ethanol) or corticosterone (12.5 μg/ml) in their drinking water.
As described in Example 4a, the cocktail was tested in a mouse model of chronic depression (RFS).

The conditions of data set [2]: oral; cited from earlier work.
Data set [3] concerns immobility in tail suspension test. Kind of data set: Tail suspension test (TST). Type of data set: in vivo, mice. To be noted: intracerebral administration. On the procedure: (§1) In the RFS study, mice were subjected to 4 daily 15 min swims as described above and were injected i.p. with either vehicle or dp6FNE (3 mg/kg) 15 min prior to the 5th swim. In the TST study, animals were injected similarly before a 6 min test. […] The animals were anesthetized and perfused for immuno-histochemistry 70 min after the start of the swim or tail suspension. Brains were processed as described previously for double-label immunofluorescent Fos/tyrosine hydroxylase staining of all sections through the LC and for single-label Fos staining through the full PVH (Stone et al., Brain Res (2009) 1291: 21-31).
To determine if dp6FNE was active in a more traditional test of antidepressant activity, it was given as above 15 min prior to a tail suspension test.
(§2) The first test involves an acute stress-induced model of depression (Steru, et al., Psychopharmacology 1985; 85: 367-370) whereas the second, a more prolonged, chronic depression that is more akin to chronic human depression (Stone, et al., Pharmacol Biochem Behav 2008; 91: 190-195).

Data set [4] deals with repeated open-space swim model. Kind of data set: Repeated open-space (forced) swim test. Type of data set: in vivo, mice. To be noted: for antidepressant activity in the repeated open-space forced swim test: intracerebral administration.
Excerpt: as §2

For data set [5] the following is noted: prazosin: at 0.2 mg/kg in mice; cited from earlier work.
Data set [6] deals with locomotor behavior in an open field. Kind of data set: Open field locomotor behavior after ivt. 6FNE or i.p. dp6FNE versus amphetamine. Type of data set: in vivo, mice. How it is done:
6FNE and dp6FNe were tested for their effects on motor activity by measuring locomotor behavior in an open field after either ivt. (6FNE) or i.p. injection (dp6fNE) in mice. These mice were compared to animals that were either non handled or received either a vehicle ivt injection or an i.p. injection of the stimulant, amphetamine (5 mg/kg). The results are shown in FIG. 6 and in (Stone, Lin Y, Sarfraz Y, and Quartermain D, 2011). […] Furthermore, the increase in activity after 6FNE was minor in comparison with the bona fide stimulant, amphetamine which produced a 10 fold increase. The small increase over the vehicle group therefore appears to be the result of a reduction of the stress caused by the handling and restraint for the ivt. injection which is in agreement with the reduced activation of brain stress circuits discussed above. This interpretation was supported by an examination of the time in the center or risky area of the field spent by the various groups. […] A slight reduction in motor behavior at the low doses (0.1-0.3 mg/kg) were, however, observed.

Data set [7] deals with home cage exploration in handling-stressed mice. The data set is described as follows: Home cage activity after handling and injection stress. In kind it is in vivo. On the procedure: FIG. 15 depicts the effect of acute i.p. dp6FNE (1 mg/kg) or cirazoline (0.1 mg/kg), (N=1), on home cage activity in terms of rearing and ambulation, Veh (N=12).
6FNE has a more rapid and/or greater antidepressant effect than either of these agonists because 6FNE is the only known selective α-agonist that has full efficacy at all brain α-adrenoceptors and 6FNE works within minutes (Stone, et al. 2011) whereas cirazoline was given to mice over several months prior to testing in one model (forced swim test) in the above experiment by Doze et al, 2009. […] (Stone, E A, Lin Y, Quartermain, D, Unpublished results)
It is known that peripheral administration of α1-agonists without phentolamine impairs exploratory behavior in the open field (Yang, et al., J Pharmacol exp Ther 1990; 255: 1064-1070).

Data set [8] has as its system PVH Fos expression. The data set is described as follows: Fos expression in the PVH, RFS model, corticosterone in the drinking water. In kind it is in vivo, mice. Conditions: versus veh. The source says: (§3) GR agonists such as corticosterone and dexamethasone are well known to produce selective inhibition of the neural activity of parvocellular PVH neurons at low doses (Keller-Wood et al., Endo Rev (1982) 5: 1-24; Dallman et al., Ann N Y Acad Sci 91987) 512: 402-414). This effect was shown in a previous experiment on the effects of corticosterone in the drinking water on Fos expression in the PVH or piriform cortex of mice subjected to the RFS model (Stone et al., eur J Pharmacol (2007) In Press). The animals were swum a total of 3 times and on the night prior to the 3rd swim given corticosterone at 12.5, 25 or 50 μg/ml in the drinking water. These concentrations produced nighttime intakes of 4.6, 10.7 and 14.2 mg/kg. The mice were given the 3rd and final swim the following morning, 0800-1000 h, and were anesthetized and perfused 70 min after the start of the swim for immunohistochemical assay of Fos in the PVH and in the piriform cortex, a control region that supports positively motivated behavior (Carr et al., Neuropsychopharmacology (2010) 35: 752-763; Stone et al., Neurosci Biobehav Revs (2008a) 32: 508-524).

The test system of data set [9] is Fos expression in the piriform cortex. The data set is described as follows: Fos expression in the piriform cortex, RFS model, corticosterone in the drinking water. To be noted: versus veh. In kind it is in vivo, mice.
Excerpt: as §3

For data set [10], the system named is open field behavior (locomotion and center square occupancy). The data set is described as follows: Open field motor activity and anxiety after capture and injection. Conditions: corticosterone 12.5 μg/ml in drinking water (4.6 mg/kg). In kind it is in vivo, mice. How it is done: To determine if the agonists had motor stimulating or sedative actions, mice were allowed to explore an open field undisturbed for 60 min and were then captured and injected i.p. with either vehicle or the full “cocktail” of the 3 […] (dp6FNE 1 mg/kg; 8-OHDPAT, 0.05 mg/kg; corticosterone, 3 mg/kg, praz, 0.2 mg/kg) before being replaced in the field for a final 15 min. The vehicle injection (praz present) reduced subsequent locomotion and time spent in the center of the field by −76.8±11.0% and −78.5±12.4%, respectively, from preceding levels, indicating an anxiogenic effect of the injection procedure. The injection of the “cocktail”, however, rescued both locomotion and center time to −12.9±1.9% and −25.3±6.9%, respectively, indicating a strong anti-anxiety effect with no motor stimulation or sedation (FIG. 9).
In addition to its antidepressant property, the cocktail is also effective in producing a significant antianxiety effect without sedation in these animals. The applicants have tested for this effect using an open field in which animals are placed and permitted to explore freely after which they are captured, restrained briefly for an ip. injection of saline and returned to the field for a final 15 min. […]

Data set [11] relates to Fos expression in the LC. The data set is described as follows: Fos expression in the LC during the RFS model. To be noted: prazosin 0.2 mg/kg; vehicle animals compared with previous results without prazosin. Type of data set: in vivo, mice. How it is done: as §1, with “21-31). […] In the tail suspended mice the analogous reductions were 53.5±7.2% (LC) and 36.7±3.1 (PVH). […] These findings thus indicate that a dose of […] dp6FNE that has preferential inhibitory effects on the LC during depression exists.” for “21-31).”

[12] abbreviates: corticosterone 25 μg/ml in drinking water, nighttime intake 10.7 mg/kg.
The mark [13] stands for this setting: corticosterone 50 μg/ml in drinking water, nighttime intake 14.2 mg/kg.
[14] abbreviates: corticosterone 12.5 μg/ml in drinking water, nighttime intake 4.6 mg/kg, mice swum for 3 d, versus vehicle.

Each structure is given as a SMILES string. Like-named read-outs stand apart in the source and are kept apart here.

`CCC1(c2cnc[nH]2)Cc2ccccc2C1` [atipamezole]: the “effect of receptor blockade on the antidepressant actions of dp6FNE in the RFS” value in [1] (mouse, in vivo) is listed as “significantly reversed the antidepressant actions of pro-drug in the RFS”.
`C[C@@H]1C[C@H]2[C@@H]3CCC4=CC(=O)C=C[C@]4(C)[C@@]3(F)[C@@H](O)C[C@]2(C)[C@@]1(O)C(=O)COP(=O)(O)O` [dexamethasone sodium phosphate]: in [2], the bioavailability entry is reported as “approximately 0.5”.
With `NCC(O)c1cc(O)c(O)cc1F` (stereo not drawn) [6FNE, 6-fluoronorepinephrine], the “antidepressant activity in the tail suspension test” value in [3] is given as “equally effective”. Besides, the “antidepressant activity in the repeated open-space forced swim test” value in [4] is recorded as “effective”. The “passage of the blood brain barrier” value in [5] is “does not pass the blood brain barrier”. Further, in [6] (6FNE ivt. or dp6FNE i.p.), the “time in the center of the field” value is on record as “restored this behavior back to the level of the non-handled controls”. Further, in data set [6] (mouse, in vivo, ip), the “effect on motor activity in the open field” value is listed as “no change in activity compared to the non-handled animals”.
Consider `Cc1cccc([C@H](C)c2cnc[nH]2)c1C` [dexmedetomidine], for which, in [3], the “antidepressant activity in the tail suspension test” value was “equally effective”. In addition, the “antidepressant activity in the repeated open-space forced swim test” value in data set [4] is listed as “only 6FNE was effective”.
For the compound `CC(N)Cc1ccccc1` (stereo not drawn) [amphetamine], the “increase in activity in the open field” value in [6] (amphetamine 5 mg/kg i.p.) came to 10 fold.
For the compound `CNC1(c2ccccc2Cl)CCCCC1=O` (stereo not drawn) [ketamine], the “acute antidepressant (anti-immobility) effect in the RFS” value in data set [1] is “None of the currently available antidepressants that were tested, including ketamine, appeared acutely effective”.
In the case of `CNCCCN1c2ccccc2CCc2ccccc21` [DMI, desmethylimipramine], the “acute effect in the repeated open-space swim test” value in data set [4] (acute i.p., dp6FNE at 1, 3 and 10 mg/kg given along with phentolamine 5 mg/kg i.p.) is on record as “complete lack of effect”.
For the compound `c1ccc(C2CC2)c(OCC2=NCCN2)c1` [cirazoline], the “effect by itself on movement and motor behavior in the home cage” value in data set [7] (cirazoline i.p., unpublished results) is “pronounced inhibition of movement and motor behavior”. For the same compound, in data set [7] (i.p., dp6FNE (1 mg/kg) in the presence of phentolamine, cirazoline (0.1 mg/kg)), the “behavioral inhibition in the home cage following handling and injection stress” value was “not effective in reducing behavioral inhibition”.
For `C[C@]12C[C@H](O)[C@H]3[C@@H](CCC4=CC(=O)CC[C@@]43C)[C@@H]1CC[C@@H]2C(=O)CO` [corticosterone], the “reduction of PVH Fos expression” value in data set [8] (corticosterone 12.5 μg/ml in drinking water, nighttime intake 4.6 mg/kg, 70 min after start of 3rd swim) is recorded as −51.7±17%; in data set [8] (setting [12]) it was −66.8±8.5%; in data set [8] (setting [13]) it was −63.7±11.0%. Besides, the “increase of Fos expression in the piriform cortex” value in [9] (corticosterone 12.5 μg/ml in drinking water, nighttime intake 4.6 mg/kg) is given as “+203.3±78.6%”; in data set [9] (setting [12]), “+175.3±53.9%”; in [9] (setting [13]) it was “+193.3±67.4%”. Besides, the “increase of distance swum” value in [1] (setting [14]) is reported as “+107.7±15.8%”. Moreover, the reduction in immobility in data set [1] (setting [14]) is listed as −36.6±5.7%. The “acute antidepressant (anti-immobility) effect in the RFS” value was “rapid and effective preclinical antidepressant actions” in data set [1]; “immediate and effective antidepressant action” in data set [1] (listed as corticosteroid). Moreover, the open field locomotion result in data set [10] is listed as “No effect”.
As to `COc1cc2nc(N3CCN(C(=O)c4ccco4)CC3)nc(N)c2cc1OC` [prazosin], in data set [1] (high dose systemic prazosin or α2-antagonist atipamezole given with dp6FNE), the “effect of receptor blockade on the antidepressant actions of dp6FNE in the RFS” value is recorded as “significantly reversed the antidepressant actions of pro-drug in the RFS”. Further, in data set [11], the “effect of the antagonist on LC or PVH Fos” value is recorded as “no effect”.

The record behind these values is patent US9265774B2, “Methods, compounds and pharmaceutical compositions for treating anxiety and mood disorders” (New York University, priority 2011, dated 2016).
